# Measured values published in patent US9274101B2 (BIOLOG, Inc., priority 2001, dated 2016).
# Assays:
# [1] = tested on: Staphylococcus aureus (ATCC #29213); assay: MIC determination in MICROPLATE testing plates, saline vs GELRITE inoculant; type: cell-based; conditions: ATCC29213, 18 h, SF-P plates with resazurin, 35° C.
# Description: All three antimicrobials were obtained from Sigma. […] Kanamycin and tetracycline were dissolved in sterile water.
# [2] = tested on: Staphylococcus aureus (ATCC #29213); conditions: cited from earlier work
# E. coli MG1655 = assay: PM kinetic profiles of antimicrobials, S-O-R scoring and dendrogram; type: cell-based, Escherichia coli; conditions: 1× level of each antimicrobial, 7 PMs, 48 hours
# [3] = tested on: Escherichia coli (ATCC#25922); conditions: cited from earlier work
smiles,measurement,setting,value
"CC1(C)S[C@@H]2[C@H](NC(=O)[C@H](N)c3ccccc3)C(=O)N2[C@H]1C(=O)O [Ampicillin, ampicillin]",MIC,[1]; diluent GELRITE (0.4%),1 to 2 µg/mL
same,MIC,[1]; diluent Saline,1 to 4 µg/mL
same,"MIC, NCCLS Expected Results",[2],0.25 to 1 µg/mL
same,position in dendrogram of PM response profiles (FIG. 9),E. coli MG1655,cluster
same,"MIC, NCCLS Expected Result",[3],2 to 8 µg/mL
